The target in assay [1] is T1, human MCR4 receptor (Homo sapiens, UniProt P32245).
T1 construct: expressed in transfected cells
As to the kind of experiment: MCR4 standard functional assay (Protocol C): cAMP AlphaScreen in HEK cells. In kind it is cell-based. As to conditions: Table 5. The procedure: (§1) Stimulation of adenylate cyclase following receptor activation is a widely used measure of functional activity for a number of receptor systems. The functional assay to measure cyclic AMP (cAMP) utilises human embryonic kidney (HEK) cells that stably express the human melanocortin MCR1, MCR3 or MCR4 receptor. Activation of MCR1, MCR3 or MCR4 receptors stimulates adenylate cyclase, generating cAMP, which is measured using AlphaScreen™ (PerkinElmer assay kits.
(§2) The AlphaScreen™ cAMP assay kit consists of ‘donor beads’, ‘acceptor beads’, and biotinylated cAMP which links the different beads together. Excitation of this linked complex at […] in the Fusion™-α microplate analyser results in light emission between […].
(§3) (i) MCR1. MCR3 and MCR4 Standard Functional Assay Methodology [Assay Protocol A, B AND C Respectively]
(§4) Determination of activity against the human MCR1, MCR3 and MCR4 receptor subtypes was carried out for compounds according to the present invention using three immortalised human embryonic kidney (HEK) cell lines that had been biologically engineered to express the human melanocortin MCR1, MCR3 or MCR4 receptor subtypes. These cell lines were engineered using protocols akin to those outlined by Gouarderes et al (Gouarderes, C., (2002) Neuroscience, 115(2); 349-361).
(§5) Such-compound-induced activation of these MCR1, MCR3 or MCR4 receptors lead to the stimulation of the cellular enzyme adenylate cyclase, which in turn lead to the cellular generation, and intra-cellular accumulation, of cyclic adenosine monophosphate (cAMP). […] Intracellular levels of cAMP were quantified using the commercially available AlphaScreen™ assay kits from PerkinElmer. A detailed assay protocol and an explanation of the concept underlying this kit is available through the PerkinElmer website (www.perkinelmer.com). The protocol listed below provides a summary this information.
(§6) The quantity of intracellular cAMP produced by compound-induced activation of the MCR1, MCR3 and MCR4 receptors in these three cell lines was measured using a Fusion™-α microplate analyser set to stimulate at a wavelength of 680 nm and to measure the energy emitted at wave lengths between […]. Compound-induced increases in MCR1, MCR3 or MCR4 receptor activation were subsequently quantified as a decrease in the quantity of light emitted at wavelengths between […]. Data analysis was subsequently performed using a curve-fitting program and the apparent potency of the test compound (expressed as an EC50 and defined as the effective compound concentration that elicited 50% of the maximum compound-induced response) extrapolated from the fitted curve.
Stimulation buffer (as per AlphaScreen™ protocol): HBSS supplemented with 0.5 mM IBMX, 5 mM HEPES, 0.1% (w/v) BSA and 10 mM MgCl2. […]

The target of assay [2] is T2, human MCR3 receptor (Homo sapiens, UniProt P41968).
T2 construct: expressed in transfected cells
T2 sequence (P41968 whole entry): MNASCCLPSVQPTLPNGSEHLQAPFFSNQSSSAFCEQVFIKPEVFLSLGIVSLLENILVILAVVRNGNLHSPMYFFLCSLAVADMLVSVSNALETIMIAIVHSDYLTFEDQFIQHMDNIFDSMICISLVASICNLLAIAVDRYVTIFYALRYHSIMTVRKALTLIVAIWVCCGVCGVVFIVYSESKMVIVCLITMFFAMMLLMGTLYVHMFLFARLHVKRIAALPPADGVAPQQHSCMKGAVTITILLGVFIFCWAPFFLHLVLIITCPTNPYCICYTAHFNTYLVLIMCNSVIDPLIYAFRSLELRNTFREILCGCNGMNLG
As to the kind of experiment: MCR3 standard functional assay (Protocol B): cAMP AlphaScreen in HEK cells. As to conditions: Table 5. In kind it is cell-based. The procedure: as §1, §2, §3, §4, §5, §6
Stimulation buffer (as per AlphaScreen™ protocol): HBSS supplemented with 0.5 mM IBMX, 5 mM HEPES, 0.1% (w/v) BSA and 10 mM MgCl2.
Lysis buffer (as per AlphaScreen™ protocol): 5 mM HEPES solution supplemented with 0.1% (w/v) BSA and 0.3% (v/v) Tween-20.
Detection mix (as per AlphaScreen™ protocol): Lysis buffer supplemented with the biotinylated cAMP (10 nM) and Donor beads (10 μg/ml) as supplied in the AlphaScreenT cAMP assay kit.
For the MCR1, MCR3 and MCR4 standard functional assay methodologies compounds were initially dissolved in DMSO to give a compound concentration of 4 mM and then further diluted for the assay in stimulation buffer to give actual concentrations 2-fold greater than that desired as the final assay concentration.
The three HEK cell lines, as detailed hereinbefore, expressing the human MCR1, MCR3 or MCR4 receptor subtypes were grown in T225 vent cap flasks containing 50 ml of growth medium (DMEM supplemented with 10% (v/v) FCS, 2 mM L-Glutamine, 25 mM HEPES and 1.0 mg/ml Geneticin) and maintained in a cell incubator at a temperature of 37° C. and in an environment containing 5% CO2. Cells were harvested when they reached 80-90% confluency by first removing the existing growth medium and then washing with PBS that had been pre-warmed to a temperature of 37° C. […]
A general note: In Alpha technology, singlet oxygen from a donor bead excites a nearby acceptor bead.

For assay [3], the system named is spontaneous penile erection in the conscious rat. As to the kind of experiment: Spontaneous penile erection in the conscious rat (telemetric intracavernosal pressure). In kind it is in vivo. Conditions: for maximum effective dose: s.c. The procedure:
MCR4 in vivo data for the compound of Example 1 was assessed by selective activation of melanocortin MCR4 receptors using the methodology assessing spontaneous penile erection in the conscious rat.
Erectile responses were recorded by measuring intracavernosal pressure using a surgically implanted telemetric device (TA11PA-C40, 8 mm catheter, modified 3 mm tip, available from Data Sciences International Inc.). An increase in intracavernosal pressure is indicative of penile erection, as an increase in intracavernosal pressure is an essential hemodynamic event during the initiation and maintenance of penile erection. The specific details of the surgical procedures, data acquisition and analysis used herein to measure increases in intracavernosal pressure can be found in detail in Bernabe J., Rampin O., Sachs B. D., Giuliano F., “Intracavernous pressure during erection in rats: an integrative approach based on telemetric recording”, Am. J. Physiol. 1999 February; 276 (2 Pt 2):R441-9.
The test animals (rats) (during the dark cycle) were habituated for 18 hours before baseline assessment of erectile function. Prior to administration of the test agent the baseline erectile activity (B) was assessed for the vehicle for 10 minutes using telemetric recording of intracavernosal pressure. Following subcutaneous administration of the compound of Example 1 (in the same vehicle), penile erections were assessed (using telemetric recording of intracavernosal pressure) over 10 minute periods, at intervals of 30, 60, and 90 minutes post dosage.

Each structure is given as a SMILES string.

T1 sequence (P32245 whole entry): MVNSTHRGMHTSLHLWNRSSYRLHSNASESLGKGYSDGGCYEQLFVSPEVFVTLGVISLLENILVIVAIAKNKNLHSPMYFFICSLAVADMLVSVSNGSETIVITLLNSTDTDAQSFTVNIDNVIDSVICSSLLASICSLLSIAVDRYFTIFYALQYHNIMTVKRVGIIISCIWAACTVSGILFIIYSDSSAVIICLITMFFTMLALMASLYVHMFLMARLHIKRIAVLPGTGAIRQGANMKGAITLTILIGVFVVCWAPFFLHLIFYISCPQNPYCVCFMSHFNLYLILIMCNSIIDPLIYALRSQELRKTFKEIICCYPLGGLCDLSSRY

As a reminder, the EC50 is the concentration that produces a half-maximal response. A high value points to weaker potency. For `C[C@@H]1CN(C(=O)[C@@H]2CN(C(C)(C)C)C[C@H]2c2ccc(F)cc2F)C[C@H](C)[C@@]1(O)c1ccccc1` [Example 1, (3R,4R,5S)-1-{[(3S,4R)-1-tert-Butyl-4-(24-difluorophenyl)pyrrolidin-3-yl]carbonyl}-3,5-dimethyl-4-phenylpiperidin-4-ol], the EC50 in assay [1] came out at 25 nM; in assay [2] (Protocol B), 1390 nM. Further, the “Selectivity MCR3/MCR4” value in assay [2] (MCR4 by Protocol C) is given as 56. The maximum effective dose in assay [3] (additional, more detailed study, FIG. 2, conscious rat) came to 10 µg/kg; in assay [3] (preliminary study, FIG. 1, conscious rat), 1 µg/kg. The “erectile activity (number of erections over a 10 minute period) versus baseline (treatment vehicle)” value in assay [3] (additional, more detailed study, FIG. 2, starting 30 minutes post dosage, 1, 10 and 100 μg/kg s.c.) is listed as “increases the erectile activity versus baseline erectile activity”. The “number of penile erections” value in assay [3] (conscious rat, subcutaneously (s.c.)) is “dose dependent increase in the number of penile erections”. The “erectile activity (number of erections over a 10 minute period) versus baseline” value in assay [3] (preliminary study, FIG. 1, starting 60 minutes post dosage, 1, 10 and 100 μg/kg s.c.) is “increases the erectile activity versus baseline erectile activity”.

Source of the values: patent US7649002B2, “(3,5-dimethylpiperidin-1yl)(4-phenylpyrrolidin-3-yl)methanone derivatives as MCR4 agonists” (Pfizer Inc, priority 2004, dated 2010).
